Consider 33 compounds from PubChem BioAssay (NCI).

Values joined by “and” are separate entries in the source; they are usually repeats but may differ in a detail not shown here. Equal entries are not always repeated.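 The compound was tested at five concentrations on cells cultured in 96-well plates, with a 48-hour exposure period. GI50: concentration for 50% inhibition of growth. TGI: concentration producing complete growth inhibition.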 Some results are limits rather than exact numbers.

The subject of this test is MDA-MB-468 breast. In words: NCI anticancer screen, dose series, 48 h.
As to `O=C(NCCCN1CCC(N2CCCCC2)CC1)C1=Cc2cc(Br)ccc2OC1`, the GI50 is 3150 nM and the TGI came to 12600 nM.

As to `O=C(OCc1nc2nc(Cl)nc(N3CCOCC3)c2[nH]1)n1ccnc1`, the GI50 was 1850 nM and the TGI is 3540 nM.

As to `Oc1c(I)cc(I)cc1CNCCN(Cc1ccccn1)Cc1ccccn1`, the GI50 was 1670 nM and the TGI was determined as 4850 nM.

With `CN1N=C(N)c2cn(C3OC(COP(=O)(O)O)C(O)C3O)c3ncnc1c23` (stereo unspecified), the GI50 is 205 nM and the TGI turned out to be 3050 nM.

Turning to `O=C1C(Br)=CC2C1C1C3CCC3C2(Br)C12OCCO2` (stereo unspecified), the GI50 was 1370 nM and the TGI stood at 4210 nM.

On to `Clc1ccc(CNc2ccc3nc(CCC4CCCCC4)[nH]c3c2)cc1`, for which the GI50 was 1570 nM and the TGI was 3470 nM.

In the case of `COc1cc(-c2cc(/C=C3\C(=O)Nc4cc(Cl)ccc43)[nH]n2)cc(OC)c1OC`, the GI50 is 3170 nM and the TGI was 18200 nM.

Regarding `COc1cc(C2CC(c3cccc(Nc4ccnc5cc(Cl)ccc45)c3)=NN2C=O)cc(OC)c1OC` (stereo unspecified), the GI50 was 293 nM and the TGI turned out to be 1070 nM.

Take `CSc1nc(N)cc(Oc2ccc(-c3nc(Nc4cccc(C(F)(F)F)c4)n[nH]3)cc2)n1`: the GI50 was 360 nM and the TGI turned out to be 2660 nM.

Regarding `CCn1c(-c2nonc2N)nc2c(C#CC(C)(C)O)nc(CN3CCCC3)cc21`, the GI50 was 4150 nM and the TGI is above 25000 nM.

In the case of `O=C1Nc2ccccc2/C1=C\c1c[nH]c2ccc(Br)cc12`, the GI50 was 1620 nM and the TGI came to 3760 nM.

As for `Cn1cc(-c2nonc2-c2cn(C)c3ccc(F)cc23)c2ccccc21`, the GI50 is 515 nM and the TGI is above 84000 nM.

Consider `C/C(=C1\SC(=NCc2cccs2)NC1=O)c1ccc2ncccc2c1`, for which the GI50 was 7130 nM and the TGI is above 25000 nM.

`Cc1ccccc1N1CCN(C2=C(Cl)C(=O)c3ncccc3C2=O)CC1`: the GI50 was 1600 nM and the TGI is 3180 nM.

For `O=c1[nH]cnc2c1ccn2C1OC(CO)C(O)C1O` (stereo unspecified), the GI50 is 762 nM and the TGI stood at 3730 nM.

In the case of `N#C/C(=C/NC(=S)NCc1ccccc1)C(N)=O`, the GI50 is above 100000 nM and the TGI was above 100000 nM.

Consider `C#C[C@]1(O)CC[C@H]2[C@@H]3CC=C4c5sc(Nc6ccc(OC)nc6)nc5CC[C@]4(C)[C@H]3CC[C@@]21C`, for which the GI50 was 1460 nM and the TGI stood at 3530 nM.

Take `COc1ccc(C2C(C#N)=C(N)Oc3c2sc2c(F)cccc32)cc1` (stereo unspecified): the GI50 was 1340 nM and the TGI stood at 10600 nM.

As to `Cc1cc(Nc2nc(-c3ccc(F)cc3)nc3ccccc23)n[nH]1`, the GI50 is 2010 nM and the TGI came out at 11300 nM.

For `CCN(CC)c1ccc(/C=N/NC(=O)c2ccc(S(C)(=O)=O)cc2)c(O)c1`, the GI50 was 250 nM and the TGI stood at 1270 nM.

As for `CS(=O)(=O)CCN(CC#N)Cc1ccc(-c2ccc3ncnc(Nc4ccc(OCc5cccc(F)c5)c(Cl)c4)c3c2)o1`, the GI50 was 76.7 nM and the TGI is 1090 nM.

For `CCN1C(C)(C)CC(Oc2ccc(C(=O)Nc3ccc(NC(=O)Nc4cc(C(C)(C)C)on4)cc3)nc2)CC1(C)C`, the GI50 was 3210 nM and the TGI was found to be 8950 nM.

On to `Cc1ncc(C(=O)Nc2ccc(CN3CCN(C)CC3)c(C(F)(F)F)c2)cc1C#Cc1c(N)ncc2ccc(F)cc12`, for which the GI50 is 2820 nM and the TGI stood at 12000 nM.

Regarding `C=CCNCCN1C(=O)c2ccc3c4c(ccc(c24)C1=O)C(=O)N(CCNCC=C)C3=O`, the GI50 was 466 nM and the TGI was determined as 1160 nM.

Consider `O=C1C=CC=C[C@@H]2C(C3OCCO3)CC[C@H]12.[C-]#[O+].[C-]#[O+].[C-]#[O+].[Fe]` (stereo partly specified), for which the GI50 was 35200 nM and the TGI was above 100000 nM.

With `C[C@H](NC(=O)c1c(N)nn2cccnc12)c1cc2cccc(C#Cc3cnn(C)c3)c2c(=O)n1-c1ccccc1`, the GI50 is 843 nM and 1460 nM; the TGI is 4550 nM and 9080 nM.

In the case of `CCCN1CCN(c2ccc3nc(-c4ccc5nc(-c6ccc(C(F)(F)F)cc6)[nH]c5c4)[nH]c3c2)CC1`, the GI50 is 1780 nM and the TGI came out at 3390 nM.

For the compound `O=c1oc2ccc(Br)cc2c(=O)n1-c1ccc(Br)cc1F`, the GI50 was 819 nM and the TGI was 4320 nM.

For the compound `O=C1NC(=NCc2ccccc2Br)S/C1=C\c1ccc2ncccc2c1`, the GI50 is 4220 nM and the TGI was above 25000 nM.

As for `Cn1cc(C2=C(Oc3ccccc3)C(=O)NC2=O)c2ccccc21`, the GI50 is above 25000 nM and the TGI was above 25000 nM.

For the compound `Clc1ccc(Nc2nnc(CNc3ccccc3)c3ccccc23)cc1`, the GI50 was 1900 nM and the TGI is 11500 nM.

As to `COc1cccc2c1C(=O)c1c(O)c3c(c(O)c1C2=O)C[C@@](O)(C(C)=O)C[C@@H]3O[C@H]1C[C@H](N)[C@H](O)[C@H](C)O1`, the GI50 was 71.6 nM and the TGI came out at 221 nM.

Consider `COc1ccc(NC(=O)Nc2ccccc2CNc2nc(Nc3ccc(OCCN4CCCC4)cc3)ncc2Cl)cc1`, for which the GI50 is 894 nM and the TGI was 1720 nM.
